From ChEMBL document CHEMBL1201862, “PubChem BioAssay data set” (2004)
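Where inhibition never reached the appropriate level, the endpoint shown equals the highest concentration tested. Otherwise, values were interpolated linearly from a five-concentration, 48-hour dose response in 96-well plates. Here, GI50 denotes the concentration required for 50% inhibition of growth.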 Active and inactive are the calls of the source. Cut-off read from the data, not from the text of the source: active = GI50 up to about 1.1 µM and inactive = higher.

Key:
Assay in all cases: DTP human tumour cell line panel, 48 h
HCT-15 = test system: HCT-15
SNB-78 = test system: SNB-78
HOP-18 = test system: HOP-18
OVCAR-8 = test system: OVCAR-8
KM-20L2 = test system: KM-20L2
DMS-114 = test system: DMS-114
OVCAR-3 = test system: OVCAR-3
SK-MEL-2 = test system: SK-MEL-2
SK-OV-3 = test system: SK-OV-3
HOP-62 = test system: HOP-62
DU-145 = test system: DU-145
M14 = test system: M14
SR = test system: SR
T47D = test system: T47D
ACHN = test system: ACHN
TK-10 = test system: TK-10
MDA-MB-435 = test system: MDA-MB-435
Hs-578T = test system: Hs-578T
MDA-N = test system: MDA-N
MDA-MB-231 = test system: MDA-MB-231

| Compound | GI50 (HCT-15) | GI50 (SNB-78) | GI50 (HOP-18) | GI50 (OVCAR-8) | GI50 (KM-20L2) | GI50 (DMS-114) | GI50 (OVCAR-3) | GI50 (SK-MEL-2) | GI50 (SK-OV-3) | GI50 (HOP-62) | GI50 (DU-145) | GI50 (M14) | GI50 (SR) | GI50 (T47D) | GI50 (ACHN) | GI50 (TK-10) | GI50 (MDA-MB-435) | GI50 (Hs-578T) | GI50 (MDA-N) | GI50 (MDA-MB-231) |
| --- | --- | --- | --- | --- | --- | --- | --- | --- | --- | --- | --- | --- | --- | --- | --- | --- | --- | --- | --- | --- |
| C[C@H](CN1CC(=O)NC(=O)C1)N1CC(=O)NC(=O)C1 | > 76.2 µM | > 100 µM (inactive) | > 100 µM (inactive) | > 100 µM (inactive) | > 87.7 µM (inactive) | 0.18 µM (active) | > 100 µM (inactive) | > 10 µM (inactive) | > 100 µM (inactive) | > 65 µM (inactive) | – | – | – | – | – | – | – | – | – | – |
| CCOC(=O)N1CCN(C(=O)Nc2cccc3ccccc23)CC1 | > 10 µM | – | – | > 10 µM (inactive) | – | – | > 10 µM (inactive) | > 10 µM (inactive) | > 10 µM (inactive) | > 10 µM (inactive) | > 10 µM (inactive) | > 10 µM (inactive) | > 10 µM (inactive) | > 10 µM (inactive) | > 10 µM (inactive) | > 10 µM (inactive) | > 10 µM (inactive) | > 10 µM (inactive) | > 10 µM (inactive) | > 10 µM (inactive) |
| OCC(CO)CC1COc2ccccc2O1 (centres undefined) | > 10 µM | – | – | > 10 µM (inactive) | – | – | > 10 µM (inactive) | > 10 µM (inactive) | > 10 µM (inactive) | > 10 µM (inactive) | > 10 µM (inactive) | > 10 µM (inactive) | > 10 µM (inactive) | > 10 µM (inactive) | > 10 µM (inactive) | > 10 µM (inactive) | > 10 µM (inactive) | > 10 µM (inactive) | > 10 µM (inactive) | > 10 µM (inactive) |
| O=C1C2=C(C3=NCCc4c[nH]c1c43)C1(C=C(Br)C(O)C(Br)=C1)CCN2 (centres undefined) | 1.16 µM | 2.79 µM (inactive) | 10.7 µM (inactive) | 0.647 µM (active) | 0.317 µM (active) | 0.202 µM (active) | 1.03 µM (active) | 3.2 µM (inactive) | 13.3 µM (inactive) | 17.9 µM (inactive) | – | – | – | – | – | – | – | – | – | – |
| CC(C)C1OC(=O)/C=C/C=C/C=C/C=C/C=C/CC(O)C(C)C(O)CC(O)CC(O)CC(O)CC(O)CC(O)CC(O)/C=C/C1C (centres undefined) | > 100 µM | – | – | > 100 µM (inactive) | – | – | > 100 µM (inactive) | > 100 µM (inactive) | > 100 µM (inactive) | > 100 µM (inactive) | – | > 100 µM (inactive) | > 100 µM (inactive) | – | > 100 µM (inactive) | > 100 µM (inactive) | > 100 µM (inactive) | > 100 µM (inactive) | – | – |
| CNC(=O)SCC(NC(=O)CCC(N)C(=O)O)C(=O)NCC(=O)O (centres undefined) | > 78 µM | > 100 µM (inactive) | > 82.2 µM (inactive) | > 100 µM (inactive) | > 100 µM (inactive) | 39 µM (inactive) | > 100 µM (inactive) | > 85.7 µM (inactive) | > 100 µM (inactive) | > 100 µM (inactive) | – | – | – | – | – | – | – | – | – | – |
| CC(C)=CCc1c(C)cc2cc3c(c(O)c2c1O)C(=O)C=C(O)C3(CC=C(C)C)C/C=C(\C)CO (centres undefined) | 28 µM | – | 3.61 µM (inactive) | 28.8 µM (inactive) | 39.9 µM (inactive) | 38.9 µM (inactive) | 36.9 µM (inactive) | 13 µM (inactive) | 36.7 µM (inactive) | 36.8 µM (inactive) | – | – | – | – | – | – | – | – | – | – |
| CCOC(=O)C1(C(=O)OCC)CSC1 | > 100 µM | – | – | > 100 µM (inactive) | – | – | > 100 µM (inactive) | – | > 100 µM (inactive) | – | > 100 µM (inactive) | > 100 µM (inactive) | > 100 µM (inactive) | > 100 µM (inactive) | > 100 µM (inactive) | > 100 µM (inactive) | > 100 µM (inactive) | > 100 µM (inactive) | > 100 µM (inactive) | > 100 µM (inactive) |
| N#Cc1c(NC(=S)Nc2ccc(Cl)cc2)sc2c1CCCC2 | > 100 µM | – | – | 14.8 µM (inactive) | – | – | > 100 µM (inactive) | > 100 µM (inactive) | – | – | > 100 µM (inactive) | – | 25.1 µM (inactive) | > 100 µM (inactive) | > 100 µM (inactive) | > 100 µM (inactive) | > 100 µM (inactive) | – | > 100 µM (inactive) | 3.54 µM (inactive) |
| CC(=O)OC/C=C\Cn1nc(Br)c(=O)[nH]c1=O | 13.1 µM | – | – | 14.9 µM (inactive) | – | – | 9.75 µM (inactive) | 13.1 µM (inactive) | – | 16.3 µM (inactive) | 15.7 µM (inactive) | 14.9 µM (inactive) | 4.06 µM (inactive) | 13.9 µM (inactive) | 7.87 µM (inactive) | 19.1 µM (inactive) | 14.6 µM (inactive) | 21.5 µM (inactive) | 15.6 µM (inactive) | 18 µM (inactive) |
| FC(F)(F)C1=NC(=NNc2nnc(-c3ccccc3)c(-c3ccccc3)n2)N=C(C(F)(F)F)C1 | 11 µM | > 67.9 µM (inactive) | 50.2 µM (inactive) | 25.8 µM (inactive) | 16.8 µM (inactive) | 6.14 µM (inactive) | > 30.7 µM (inactive) | 24.5 µM (inactive) | 60.4 µM (inactive) | 13.4 µM (inactive) | – | – | – | – | – | – | – | – | – | – |
| ICC1CCCO1 (centres undefined) | > 100 µM | > 100 µM (inactive) | > 100 µM (inactive) | > 100 µM (inactive) | > 100 µM (inactive) | > 100 µM (inactive) | – | > 100 µM (inactive) | – | – | – | > 100 µM (inactive) | > 100 µM (inactive) | – | > 100 µM (inactive) | > 100 µM (inactive) | – | – | – | – |
| NC(=O)Nc1ccc(C(=O)NCCCNC(=O)c2ccc(NC(N)=O)cc2)cc1 | > 100 µM | – | – | > 100 µM (inactive) | – | – | – | > 100 µM (inactive) | – | > 100 µM (inactive) | > 100 µM (inactive) | > 100 µM (inactive) | > 100 µM (inactive) | > 100 µM (inactive) | > 100 µM (inactive) | > 100 µM (inactive) | > 100 µM (inactive) | > 100 µM (inactive) | > 100 µM (inactive) | – |
| CC(=O)OC1CCn2c1nc1cc([N+](=O)[O-])c(C)cc12 (centres undefined) | > 100 µM | – | – | > 100 µM (inactive) | – | – | > 100 µM (inactive) | > 100 µM (inactive) | > 100 µM (inactive) | – | > 100 µM (inactive) | > 100 µM (inactive) | > 100 µM (inactive) | > 100 µM (inactive) | > 100 µM (inactive) | – | > 100 µM (inactive) | > 100 µM (inactive) | > 100 µM (inactive) | > 100 µM (inactive) |
| O=C1C=C(N2CC2)C(=O)C=C1N1CC1 | 0.102 µM | 0.138 µM (active) | – | – | 0.354 µM (active) | – | 0.0889 µM (active) | 0.12 µM (active) | 0.522 µM (active) | 0.136 µM (active) | 0.339 µM (active) | 0.091 µM (active) | 0.0258 µM (active) | 1.05 µM (active) | 0.0423 µM (active) | 0.136 µM (active) | 1.23 µM (inactive) | 2.39 µM (inactive) | 0.515 µM (active) | 2.3 µM (inactive) |
